Results published in patent US20080241077A1, “BENZOYLGUANIDINE SALT AND HYDRATES THEREOF” (priority 2001, published 2008).
Structures can show the parent of a compound that is named as a salt.

Experiments:
Format in all cases: physicochemical
[1] = Solubility in physiologically acceptable solvents
[2] = Hygroscopicity of the active substance
[3] = Stability of the active substance

For `NC(N)=NC(=O)c1ccc(N2CCN(C(=O)c3ccc[nH]3)CC2)c(C(F)(F)F)c1` [formula 1, 4-[4-(2-pyrrolylcarbonyl)-1-piperazinyl]-3-trifluoromethylbenzoylguanidine hydrochloride], the solubility [1] was “dissolves readily”, the hygroscopicity [2] was “not hygroscopic” and the stability [3] was “high degree of stability”.
